From ChEMBL document CHEMBL1144590, “Thienopyridine urea inhibitors of KDR kinase” (Bioorg Med Chem Lett, 2007) come the findings set out here.

For the first data set, the target named is Cytochrome P450 3A4 (Homo sapiens, UniProt P08684). The experiment in a line: Inhibition of CYP3A4. It is filed as ADME.
Chain of Cytochrome P450 3A4 (P08684 whole entry): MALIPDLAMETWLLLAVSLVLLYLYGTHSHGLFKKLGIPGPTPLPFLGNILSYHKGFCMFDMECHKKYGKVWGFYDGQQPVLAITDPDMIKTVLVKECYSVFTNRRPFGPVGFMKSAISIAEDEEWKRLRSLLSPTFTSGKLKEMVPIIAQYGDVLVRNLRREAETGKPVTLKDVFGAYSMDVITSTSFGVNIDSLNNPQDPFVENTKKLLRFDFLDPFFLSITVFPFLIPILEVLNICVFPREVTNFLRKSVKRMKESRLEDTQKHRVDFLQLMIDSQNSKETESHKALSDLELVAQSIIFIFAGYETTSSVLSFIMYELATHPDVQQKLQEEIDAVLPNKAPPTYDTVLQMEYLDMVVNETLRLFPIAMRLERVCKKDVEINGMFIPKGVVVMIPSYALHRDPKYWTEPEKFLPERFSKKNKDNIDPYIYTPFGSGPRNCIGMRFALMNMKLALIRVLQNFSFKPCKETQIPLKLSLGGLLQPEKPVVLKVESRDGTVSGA
Details: not given
As for `Cc1cccc(NC(=O)Nc2ccc(-c3csc4c(-c5cccnc5)cnc(N)c34)cc2)c1`, the IC50 was 250 nM.

For the next data set, the target named is T1, Vascular endothelial growth factor receptor 2 (Homo sapiens, UniProt P35968).
T1 sequence (P35968 whole entry): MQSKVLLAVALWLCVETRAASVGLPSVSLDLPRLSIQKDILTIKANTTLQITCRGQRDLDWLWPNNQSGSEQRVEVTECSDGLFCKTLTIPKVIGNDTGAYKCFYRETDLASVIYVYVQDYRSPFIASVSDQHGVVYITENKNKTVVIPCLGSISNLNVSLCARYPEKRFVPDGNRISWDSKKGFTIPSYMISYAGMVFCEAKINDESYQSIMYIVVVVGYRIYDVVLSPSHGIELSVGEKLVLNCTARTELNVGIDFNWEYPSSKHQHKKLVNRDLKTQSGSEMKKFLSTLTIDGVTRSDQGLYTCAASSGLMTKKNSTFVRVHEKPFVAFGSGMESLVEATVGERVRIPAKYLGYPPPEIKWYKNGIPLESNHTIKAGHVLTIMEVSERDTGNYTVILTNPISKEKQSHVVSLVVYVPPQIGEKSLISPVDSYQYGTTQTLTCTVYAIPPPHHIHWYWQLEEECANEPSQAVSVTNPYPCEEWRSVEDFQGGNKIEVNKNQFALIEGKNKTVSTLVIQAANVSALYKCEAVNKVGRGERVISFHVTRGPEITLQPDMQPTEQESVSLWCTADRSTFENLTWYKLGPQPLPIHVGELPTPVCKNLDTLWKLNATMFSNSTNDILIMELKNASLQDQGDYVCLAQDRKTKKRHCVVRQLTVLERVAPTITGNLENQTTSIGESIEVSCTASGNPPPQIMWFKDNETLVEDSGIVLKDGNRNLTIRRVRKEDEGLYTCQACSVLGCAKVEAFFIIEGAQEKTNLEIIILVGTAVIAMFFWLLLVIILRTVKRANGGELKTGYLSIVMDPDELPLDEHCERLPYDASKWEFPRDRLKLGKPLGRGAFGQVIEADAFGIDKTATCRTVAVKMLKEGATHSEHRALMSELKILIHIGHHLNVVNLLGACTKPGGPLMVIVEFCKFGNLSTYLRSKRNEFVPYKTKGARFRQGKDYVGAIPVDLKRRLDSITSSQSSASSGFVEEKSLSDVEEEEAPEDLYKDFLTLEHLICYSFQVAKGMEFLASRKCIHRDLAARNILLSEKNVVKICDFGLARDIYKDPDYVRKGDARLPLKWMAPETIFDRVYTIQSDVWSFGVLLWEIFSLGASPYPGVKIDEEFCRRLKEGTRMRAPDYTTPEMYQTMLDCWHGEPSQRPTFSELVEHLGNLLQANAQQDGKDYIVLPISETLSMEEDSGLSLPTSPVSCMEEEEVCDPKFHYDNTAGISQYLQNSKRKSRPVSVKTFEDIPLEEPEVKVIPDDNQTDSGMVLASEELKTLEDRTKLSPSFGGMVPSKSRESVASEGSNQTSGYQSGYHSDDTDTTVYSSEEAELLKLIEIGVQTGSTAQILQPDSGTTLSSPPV
Details: not given
`CCc1cccc(NC(=O)Nc2ccc(-c3csc4ccnc(N)c34)cc2)c1`: the IC50 is 25 nM.

Compound `Cc1cccc(NC(=O)Nc2ccc(-c3csc4c(-c5cncnc5)cnc(N)c34)cc2)c1` came in with an IC50 of 8 nM.

The compound `Cc1cccc(NC(=O)Nc2ccc(-c3csc4c(-c5cncc6ccccc56)cnc(N)c34)cc2)c1` returned a half-inhibitory concentration (IC50) of 388 nM.

Take `Nc1ccc(-c2csc3ccnc(N)c23)cc1`: the IC50 stood at 4900 nM.

For `Nc1nccc2scc(-c3ccc(NC(=O)c4ccccc4)cc3)c12`, the IC50 was 12000 nM.

Turning to `Nc1nccc2scc(-c3ccc(NC(=O)Nc4ccccc4)cc3)c12`, half-maximal inhibition (IC50) required 56 nM.

`Cc1ccc(NC(=O)Nc2ccc(-c3csc4ccnc(N)c34)cc2)cc1C` had an IC50 of 10 nM.

The compound `Cc1cc(C)cc(NC(=O)Nc2ccc(-c3csc4ccnc(N)c34)cc2)c1` gave an IC50 of 16 nM.

Compound `Nc1nccc2scc(-c3ccc(NC(=O)NC4CCCC4)cc3)c12` returned an IC50 of 420 nM.

In turn, `Cc1cccc(N(C)C(=O)Nc2ccc(-c3csc4ccnc(N)c34)cc2)c1` had an IC50 of 4900 nM.

Take `Cc1cccc(NC(=O)N(C)c2ccc(-c3csc4ccnc(N)c34)cc2)c1`: the IC50 worked out at 23 nM.

Turning to `Cc1cccc(NC(=O)Cc2ccc(-c3csc4ccnc(N)c34)cc2)c1`, the midpoint of inhibition, the IC50, lay at 94 nM.

Consider `Nc1nccc2scc(-c3ccc(NC(=O)Nc4cccc5ccccc45)cc3)c12`, for which the IC50 is 75 nM.

The compound `Nc1nccc2scc(-c3ccc(NC(=O)Nc4ccc5ccccc5c4)cc3)c12` registered an IC50 of 21 nM.

As to `Nc1nccc2scc(-c3ccc(NC(=O)Nc4ccsc4)cc3)c12`, the IC50 was determined as 38 nM.

Compound `Nc1nccc2scc(-c3ccc(NC(=O)NC4CCCCC4)cc3)c12` displayed an IC50 of 491 nM.

`Cc1cccc(NC(=O)Nc2cccc(-c3csc4ccnc(N)c34)c2)c1`: it took 250 nM to reach half-maximal inhibition (IC50).

Consider `Cc1ccc(NC(=O)Nc2ccc(-c3csc4ccnc(N)c34)cc2)cc1`, for which the IC50 came to 26 nM.

Compound `Cc1cccc(NC(=O)Nc2ccc(-c3csc4c(-c5ccccc5)cnc(N)c34)cc2)c1` displayed an IC50 of 13 nM.

As for `CNC(=O)c1cccc(-c2cnc(N)c3c(-c4ccc(NC(=O)Nc5cccc(C)c5)cc4)csc23)c1`, the IC50 amounted to 11 nM.

On to `Cc1cccc(NC(=S)Nc2ccc(-c3csc4ccnc(N)c34)cc2)c1`, for which half-maximal inhibition (IC50) required 410 nM.

`Cc1cccc(NC(=O)Nc2ccc(-c3c(C)sc4ccnc(N)c34)cc2)c1` displayed a concentration for half-maximal inhibition (IC50) of 27 nM.

In the case of `Cc1cccc(CC(=O)Nc2ccc(-c3csc4ccnc(N)c34)cc2)c1`, the IC50 came to 520 nM.

In turn, `Cc1ccccc1NC(=O)Nc1ccc(-c2csc3ccnc(N)c23)cc1` yielded an IC50 of 152 nM.

`N#Cc1cccc(NC(=O)Nc2ccc(-c3csc4ccnc(N)c34)cc2)c1` had an IC50 of 45 nM.

`Nc1nccc2scc(-c3ccc(NC(=O)Nc4cccs4)cc3)c12` returned an IC50 of 30 nM.

`Cc1cccc(NC(=O)Nc2ccc(-c3csc4c(-c5ccc(O)cc5)cnc(N)c34)cc2)c1` had an IC50 of 11 nM.

`Nc1nccc2scc(-c3ccccc3)c12` had an IC50 of more than 12500 nM.

Tested on in the next data set: not listed separately
In words: Half life in mouse at 3 mg/kg, iv. Type of data set: ADME, organism-based. Set-up: dose 3 mg/kg, route intravenous. To be noted: in vivo.
For `Cc1cccc(NC(=O)Nc2ccc(-c3csc4c(-c5cccnc5)cnc(N)c34)cc2)c1`, the half-life is 24 min.

The test system of a further data set is Mus musculus. In words: Inhibition of estradiol-induced mouse uterine edema […]. Type of data set: functional.
Details: not given
For `Cc1cccc(NC(=O)Nc2ccc(-c3csc4c(-c5cccnc5)cnc(N)c34)cc2)c1`, the ED50 amounted to 2.1 mg/kg.

The next data set has as its target T1, Vascular endothelial growth factor receptor 2. Type of data set: functional, cell-based, NIH3T3.
Details: not given
This is another data set of the same source.
`CCc1cccc(NC(=O)Nc2ccc(-c3csc4ccnc(N)c34)cc2)c1` gave a half-inhibitory concentration (IC50) of 32 nM.

Take `Cc1cccc(NC(=O)Nc2ccc(-c3csc4c(-c5cncnc5)cnc(N)c34)cc2)c1`: the IC50 is 1 nM.

The compound `Nc1nccc2scc(-c3ccc(NC(=O)Nc4ccccc4)cc3)c12` returned an IC50 of 72 nM.

In turn, `Cc1ccc(NC(=O)Nc2ccc(-c3csc4ccnc(N)c34)cc2)cc1C` showed an IC50 of 41 nM.

In the case of `Cc1cc(C)cc(NC(=O)Nc2ccc(-c3csc4ccnc(N)c34)cc2)c1`, the IC50 is 48 nM.

The compound `Nc1nccc2scc(-c3ccc(NC(=O)Nc4cccc5ccccc45)cc3)c12` yielded an IC50 of 895 nM.

`Nc1nccc2scc(-c3ccc(NC(=O)Nc4ccc5ccccc5c4)cc3)c12` showed an IC50 of 15 nM.

As for `Nc1nccc2scc(-c3ccc(NC(=O)Nc4ccsc4)cc3)c12`, it took 61 nM to reach half-maximal inhibition (IC50).

`Cc1ccc(NC(=O)Nc2ccc(-c3csc4ccnc(N)c34)cc2)cc1` came in with an IC50 of 141 nM.

`Cc1cccc(NC(=O)Nc2ccc(-c3csc4c(-c5ccccc5)cnc(N)c34)cc2)c1` returned an IC50 of 33 nM.

In turn, `CNC(=O)c1cccc(-c2cnc(N)c3c(-c4ccc(NC(=O)Nc5cccc(C)c5)cc4)csc23)c1` returned an IC50 of 56 nM.

Compound `N#Cc1cccc(NC(=O)Nc2ccc(-c3csc4ccnc(N)c34)cc2)c1` came in with a 50% inhibitory concentration (IC50) of 198 nM.

The compound `Nc1nccc2scc(-c3ccc(NC(=O)Nc4cccs4)cc3)c12` displayed an IC50 of 48 nM.

`Cc1cccc(NC(=O)Nc2ccc(-c3csc4c(-c5ccc(O)cc5)cnc(N)c34)cc2)c1`: half-maximal inhibition (IC50) required 29 nM.
